Values of other authors in Sander's compilation of Henry's law constants (doi:10.1039/p29940001777).

Assay: Henry solubility constant Hcp at 298.15 K (mol/(m3 Pa))
Settings: reference: Abraham et al. (1994a); cited value

Henry solubility constant Hcp	Structure (SMILES)
0.24	CN1CCCCC1 [N-methylpiperidine]
29	OCc1ccccc1 [(hydroxymethyl)-benzene]
6.4	c1ccc2ncccc2c1 [benzo[b]pyridine]
460	CC(=O)c1cccnc1 [3-acetylpyridine]
8.6	CCCc1ccc(O)cc1 [1-hydroxy-4-propylbenzene]
39	OCCc1ccccc1 [2-phenylethanol]
1.1	CC(=O)c1ccc(C)cc1 [4'-methylacetophenone]
47000	NC(=O)c1ccccc1 [benzamide]
48	OCCCc1ccccc1 [3-phenyl-1-propanol]
16	CCc1cccc(O)c1 [1-hydroxy-3-ethylbenzene]
0.5	N#Cc1ccccc1 [benzenenitrile]
170	COc1cccc(O)c1 [1-hydroxy-3-methoxybenzene]
65	O=Cc1cccnc1 [3-formylpyridine]
3.1	Oc1ccccc1F [2-hydroxyfluorobenzene]
0.19	CCOC(=O)c1ccccc1 [ethyl benzoate]
160	CC(=O)c1ccncc1 [4-acetylpyridine]
90	COc1cccc(N)c1 [3-methoxy-benzenamine]
13	Cc1cccc(O)c1C [1-hydroxy-2,3-dimethylbenzene]
56	O=Cc1ccncc1 [4-formylpyridine]
5	COc1ccccc1O [1-hydroxy-2-methoxybenzene]
33	CCOCCO [2-ethoxyethanol]
16	Cc1cc(C)cc(O)c1 [1-hydroxy-3,5-dimethylbenzene]
8.8	Cc1ccc(C)c(O)c1 [1-hydroxy-2,5-dimethylbenzene]
0.31	COC(=O)c1ccccc1 [methyl benzoate]
13	CCc1ccc(O)cc1 [1-hydroxy-4-ethylbenzene]

Structure (SMILES)	Henry solubility constant Hcp
Oc1ccccc1Cl [2-hydroxychlorobenzene]	0.88
Cc1cccc(C)c1N [2,6-dimethylbenzenamine]	2.7
N#Cc1ccncc1 [4-cyanopyridine]	11
Nc1cccc([N+](=O)[O-])c1 [3-nitrobenzenamine]	1200
N#Cc1cccnc1 [3-cyanopyridine]	36
Cc1ccc(O)c(C)c1 [1-hydroxy-2,4-dimethylbenzene]	10
Oc1ccccc1I [2-iodophenol]	14
O=[N+]([O-])c1ccccc1O [2-nitrophenol]	0.92
Nc1ccccc1[N+](=O)[O-] [2-nitrobenzenamine]	100
Nc1cccc2ccccc12 [1-naphthylamine]	88
Cc1ccccc1N [2-methylbenzenamine]	4.6
Nc1ccc([N+](=O)[O-])cc1 [4-nitrobenzenamine]	14000
CNc1ccccc1 [(methylamino)-benzene]	1.1
Nc1ccccc1Cl [1-amino-2-chlorobenzene]	1.6
Nc1ccc2ccccc2c1 [2-naphthylamine]	120
Nc1ccc(Cl)cc1 [1-amino-4-chlorobenzene]	8.6
Cc1cc(O)ccc1Cl [4-chloro-3-methylphenol]	39
CCOP(=O)(OCC)OCC [triethylphosphate]	140
Nc1cccc(Cl)c1 [1-amino-3-chlorobenzene]	7.5
